Earlier results in patent publication US20100310474A1, “PROTEIN CAGES FOR THE DELIVERY OF MEDICAL IMAGING AND THERAPEUTIC AGENTS” (MONTANA STATE UNIVERSITY, priority 2002, published 2010).

Legend:
tumor cells = details: free peptide
[1] = test system: experimental tumor lung colonization; details: free peptide
tumor angiogenesis = details: mice
platlets and neutrophils = details: cells bearing 67 kDa LBP

Compound | cytotoxic effects on tumor cells (tumor cells in culture) | invasion of basement membranes by tumor cells (tumor cells) | experimental tumor lung colonization [1] | tumor angiogenesis (tumor angiogenesis) | toxic effect on platelets and neutrophils (platlets and neutrophils)
Cc1ccc(C(=O)Nc2ccc(S(=O)(=O)O)c3cc(S(=O)(=O)O)cc(S(=O)(=O)O)c23)cc1NC(=O)c1cccc(NC(=O)Nc2cccc(C(=O)Nc3cc(C(=O)Nc4ccc(S(=O)(=O)O)c5cc(S(=O)(=O)O)cc(S(=O)(=O)O)c45)ccc3C)c2)c1 [suramin] | cytotoxic effects |  |  |  | 
CDPGYIGSRC [peptide 11] |  | effectively blocks | reduces | inhibits | no toxic effect
